Laboratory results: patent US20030181377A1, “Inhibition of VEGF receptor signaling reverses tumor resistance to radiotherapy” (Vanderbilt University, priority 2002, published 2003)

What was measured:
HUVEC [1] = experiment: Radiation-induced apoptosis in endothelial cells (HUVEC); type: cell-based, human
Procedure: FIG. 5 is a bar graph depicting an increased percentage of endothelial cells undergoing apoptosis in response to VEGF-R2 inhibition followed by radiotherapy. […] Cells were treated. with 6 Gy of radiation and stained 24 hours later. The percentage of cells undergoing apoptosis was determined for each of the treatment groups as described in Example 6. The mean percentage of apoptotic cells and the standard error of the mean were determined using 4 culture plates in each treatment group.
To determine whether Flk-1 inhibitors enhance radiation-induced intrinsic cell death mechanisms, radiation-induced apoptosis in HUVEC human primary culture endothelial cells, 3B11 murine endothelial cells, and human microdermal endothelial cells (HMEC) was studied following Flk-1 inhibition. […] Cells were then treated with 6 Gy of ionizing radiation. Cultures were stained to reveal apoptotic cells 24 hours later. Endothelial cell death was quantified by counting the number of apoptotic bodies in 100 cells.

[2] = tested on: GL261 and B16F0 tumor blood flow; experiment: Power Doppler sonography of tumor blood flow; type: in vivo, C57BL6 mice
Description: Power Doppler sonography was used to study the response of tumor blood vessels to ionizing radiation. This method utilizes amplitude to measure flow in microvasculature. Tumors were imaged with a 10-5 MHz ENTOS® linear probe (Advanced Technology Laboratories, Inc., Bothell, Wash., United States of America) attached to an HDI® 5000 diagnostic ultrasound system (Advanced Technology Laboratories, Inc., Bothell, Wash., United States of America).
Power Doppler sonography images were obtained with the power gain set to 82%. Care was taken to minimize motion artifact. A 20-frame cineloop sweep of the entire tumor was obtained with the probe perpendicular to the long axis of the lower extremity along the entire length of the tumor.
The images were analyzed using HDI® software (Advanced Technology Laboratories, Inc., Bothell, Wash., United States of America). This software allows direct evaluation of Power Doppler cineloop raw data. Color area was recorded for the entire tumor. […]
To determine whether inhibition of Flk-1-mediated signal transduction also enhances the cytotoxic effects of radiotherapy in established tumors, Power Doppler sonography was used to quantify blood flow in 1 cm diameter tumors treated with Flk-1 inhibitors and ionizing radiation. […] Blood flow was quantified by Power Doppler sonography on days 4 and 7 according to methods described in Example 3.

[3] = tested on: tumor blood flow (B16F0, LLC, GL261, D54 tumors); experiment: Restoration of tumor blood flow after radiotherapy (Doppler); type: in vivo, mice; conditions: SU5416 in combination with radiation, measured daily for 7 days; radiation-only controls restored flow by day 7
Description: FIG. 7 is a bar graph depicting inhibition of tumor revascularization via administration of a VEGF-R2 inhibitor. Doppler analysis of blood flow in four tumor types is shown on 3, 5, and 7 days following radiation treatment. Animals received radiation treatment alone (control) or in combination with SU5416. In control animals, tumor revascularization occurs within 7 days following radiation treatment. Tumor revascularization is repressed in animals receiving SU5416 in combination with radiation treatment. Open bars, B16F0 tumors; solid bars, LLC tumors; stippled bars, GL261 tumors; hatched bars, D54 tumors.
Tumor-bearing mice were generated as described in Example 1. […] Control animals were treated with radiation alone. Doppler analysis of tumor blood flow was measured daily for 7 days using the methods described in Example 3. In control animals receiving only radiation treatment, restoration of tumor blood flow was observed by day 7.

[4] = tested on: GL261 and B16F0 tumor blood vessels; experiment: Tumor vascular window model (vascular length density); type: in vivo, C57BL6 mice
Procedure: Penicillin/streptomycin solution (200 μl; available from GIBCO™ Invitrogen Corporation, Carlsbad, Calif., United States of America) was injected into the hind limb of the mouse prior to preparation of the window chamber. The dorsal ventral window chamber was prepared using a 3-gram plastic frame, which was applied to the skin of a test animal and remained attached for the duration of the study. Briefly, the chamber was screwed together, and the epidermis was cut and left open with a plastic covering.
To prepare a test animal for application of the plastic frame, the dorsal midline was found along the animal's back, and a clip was placed to hold the skin in position. […]
GL261 and B16F0 cells were implanted into the dorsal skin fold window chamber. […] Scanned slides were analyzed using OPTIMAS® image analysis software (Bioscan, Inc., Edmonds, Wash., United States of America; available from Media Cybernetics, Silver Spring, Md., United States of America) or IMAGE-PRO® software (Media Cybernetics, Silver Spring, Md., United States of America) as described below.
Vascular center lines were positioned by OPTIMAS® software or IMAGE-PRO® software and verified by an observer blinded to the treatment groups. Tumor blood vessels were quantified using OPTIMAS® software, which quantified the vascular length density of blood vessel within the microscopic field. […]

GL261 tumors = experiment: Tumor volume assessment / growth delay; type: in vivo, C57BL6 mice
Procedure: GL261 tumors were generated by subcutaneous injection of 10^6 viable GL261 cells suspended in 0.2 ml of a 0.6% agarose solution into the right thigh of C57BL6 mice. […] An equal number of large and intermediate size tumors were present in each group. […] Control mice received identical doses and schedule of either SU5416 alone or radiation alone. Twice each week, tumor volumes were measured using skin calipers as previously described by […] et al., 1998; […] et al., 1995; and Staba et al., 1998. Tumor volumes were calculated using a formula: a×b×c/2, where a=maximal width dimension, b=maximal length dimension, and c=maximal depth dimension, which was derived from the formula for an ellipsoid (πd^3/6). Data were calculated as the percent of original (day 0) tumor volume and graphed as fractional tumor volume ±1 standard deviation for each treatment group. Variance was analyzed by the Kruskal-Wallis method (Kruskal & Wallis, 1952). Growth delay was determined as the number of days required for a tumor to reach a predetermined volume, for example three-fold the original volume, or a volume of 1 cm^3. […] In a second experiment, mice were randomly assigned to each of the four treatment groups for a total of 10 mice in each group. […] Flk-1 inhibition and radiation treatments were initiated fourteen days after the tumor cells had been injected and were performed as described herein above.

EPCs in GI261 gliomas = experiment: Endothelial progenitor cell (EPC) infiltration of irradiated tumor; type: in vivo, mice; conditions: SU5416 and radiation; tumor sections on days 1, 4 and 7
Procedure: EPCs were isolated from peripheral circulation, fixed with paraformaldehyde, and incubated with antibodies that specifically bind to Flk or to CD31. A fluorescently-labeled secondary antibody was used to detect Flk and CD31 (PECAM; platelet-endothelial cell adhesion molecule 1) proteins on the surface of EPCs.
Mice bearing GI261 gliomas, generated as described in Example 1, received radiation […] treatment of the tumor. EPCs were isolated from peripheral circulation and fluorescently labeled with Dil (1,1′-dioctadecyl-3,3,3′,3′-tetramethylindocarbocyanine perchlorate; available from Molecular Probes, Inc., Eugene, Oreg., United States of America). Labeled EPCs were then administered via tail vein injection to tumor-bearing mice immediately following tumor irradiation. Tumor sections were obtained on days 1, 4, and 7 following irradiation. In control mice, EPCs were detected in the perivascular space at day 4, and then proliferated and migrated into to the tumor by day 7.

[5] = in vivo; cited from earlier work
HUVEC [6] = conditions: Lin et al., 1998; cited from earlier work
Flk-1 = conditions: Lin et al., 1998; cited from earlier work

Cc1cc(C)c(/C=C2\C(=O)Nc3ccccc32)[nH]1 [SU5416]
percentage of apoptotic cells, with radiation (HUVEC [1]; 50 μM SU5416 or 10^8 pfu Ad.ExFlk plus 6 Gy, stained 24 hours later): 14% | percentage of cells undergoing apoptosis, no radiation (HUVEC [1]; 50 μM SU5416 or 10^8 pfu Ad.ExFlk, not exposed to ionizing radiation): 4% | reduction in tumor blood flow, SU5416 plus radiation ([2]; 0.75 mg intraperitoneal 1 hour prior to irradiation, 3 Gy per day for 7 days, p=0.004 vs either treatment alone): significant reduction in tumor blood flow | reduction in tumor blood flow, SU5416 alone ([2]; 0.75 mg intraperitoneal, 3 doses, no radiation, 1 cm GL261 and B16F0 tumors, days 4 and 7): minimal reduction | tumor blood flow after radiation treatment [3]: tumor blood flow was repressed | time to complete destruction of tumor blood vessels ([4]; 0.75 mg administered 1 hour prior to 2 Gy, p=0.02 vs radiation alone): ≤ 24 h | regression of tumor blood vessels, SU5416 alone ([4]; 0.75 mg, absence of ionizing radiation): minimal regression of the tumor blood vessels and rapid restoration of vasculature | tumor growth delay, SU5416 alone (GL261 tumors; 0.75 mg intraperitoneal on days 0, 4, 7 and 11, first experiment): No growth delay | tumor volume, SU5416 followed by radiation (GL261 tumors; first experiment (FIG. 6A), 0.75 mg i.p. ×4 plus 3 Gy ×8, p=0.01 vs radiation alone, p<0.009 vs SU5416 alone): significantly reduced tumor volumes | tumor volume, SU5416 and radiation (GL261 tumors; second experiment (FIG. 6B), 10 mice per group, p=0.01 vs radiation alone, p=0.006 vs SU5416 alone): significantly reduced tumor volumes | extravasation of EPCs into the tumor (EPCs in GI261 gliomas): extravasation of EPCs into the tumor was prevented | plasma half-life [5]: 1 to 2 h

B1: ExFlk.6His: soluble extracellular component of Flk-1 tagged with 6 histidine residues (protein, UniProt P35918 20-762, looked up)
extracellular domain: ASVGLPGDFLHPPKLSTQKDILTILANTTLQITCRGQRDLDWLWPNAQRDSEERVLVTECGGGDSIFCKTLTIPRVVGNDTGAYKCSYRDVDIASTVYVYVRDYRSPFIASVSDQHGIVYITENKNKTVVIPCRGSISNLNVSLCARYPEKRFVPDGNRISWDSEIGFTLPSYMISYAGMVFCEAKINDETYQSIMYIVVVVGYRIYDVILSPPHEIELSAGEKLVLNCTARTELNVGLDFTWHSPPSKSHHKKIVNRDVKPFPGTVAKMFLSTLTIESVTKSDQGEYTCVASSGRMIKRNRTFVRVHTKPFIAFGSGMKSLVEATVGSQVRIPVKYLSYPAPDIKWYRNGRPIESNYTMIVGDELTIMEVTERDAGNYTVILTNPISMEKQSHMVSLVVNVPPQIGEKALISPMDSYQYGTMQTLTCTVYANPPLHHIQWYWQLEEACSYRPGQTSPYACKEWRHVEDFQGGNKIEVTKNQYALIEGKNKTVSTLVIQAANVSALYKCEAINKAGRGERVISFHVIRGPEITVQPAAQPTEQESVSLLCTADRNTFENLTWYKLGSQATSVHMGESLTPVCKNLDALWKLNGTMFSNSTNDILIVAFQNASLQDQGDYVCSAQDKKTKKRHCLVKQLIILERMAPMITGNLENQTTTIGETIEVTCPASGNPTPHITWFKDNETLVEDSGIVLRDGNRNLTIRRVRKEDGGLYTCQACNVLGCARAETLFIIEGAQEKTNLE
modifications: extracellular domain His6 tag
VEGF-induced DNA synthesis and migration in HUVEC (HUVEC [6]): inhibits | activation of Flk-1 (Flk-1): blocks activation of Flk-1
